Paper PMC11109624, “Celastrol Ameliorates Neuronal Mitochondrial Dysfunction Induced by Intracerebral Hemorrhage via Targeting cAMP‐Activated Exchange Protein‐1” (Advanced Science, 2024)

Target: T1, cNMP-EPAC-1 (cNMP domain of EPAC-1, 149-318) (Homo sapiens, UniProt O95398)
T1 construct: gene RAPGEF3; pGEX4T1 N-terminal GST tag, removed by protease; E. coli BL21(DE3); glutathione, Ni-NTA and Superdex 75
T1 sequence (O95398 191-360): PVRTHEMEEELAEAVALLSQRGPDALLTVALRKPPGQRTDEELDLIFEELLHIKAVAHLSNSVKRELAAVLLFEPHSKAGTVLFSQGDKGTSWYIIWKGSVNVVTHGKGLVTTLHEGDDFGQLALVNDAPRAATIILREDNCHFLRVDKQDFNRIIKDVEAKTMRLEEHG
Assay: isothermal titration calorimetry (MicroCal iTC200)
Type: binding

CC1=C(O)C(=O)C=C2C1=CC=C1[C@@]2(C)CC[C@@]2(C)[C@@H]3C[C@](C)(C(=O)O)CC[C@]3(C)CC[C@]12C [celastrol]
Kd: 1570 nM
